Molecules are shown by their SMILES.

The record followed here is US12679839B2, “Cyclin-dependent kinase 7 (CDK7) non-covalent inhibitors” (JANSSEN PHARMACEUTICA NV, priority 2020, dated 2026).

This experiment has as its system RNA polymerase II Serine 5 phosphorylation (Rpb1 CTD), downstream substrate of CDK7. The experiment in a line: Imaging-based cellular RNA PolII Ser5 phosphorylation assay in A549 cells. Conditions: Homo sapiens, A549, 3 h, challenged with compound for 3 hours, read-out: pRNA polII Ser5 (A549) pIC50 (converted). It is filed as cell-based, human. The method, boiled down:
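A549 cells seeded 20 h in DMEM with 1% FBS, then exposed to compound for 3 h at 37 °C; fixed, methanol-permeabilized and immunostained for phospho-Rpb1 CTD Ser5, read by automated imaging. Signal normalized to DMSO (high) and 10 μM LDC4297 (low) controls; IC50 from four-parameter fit of % control vs concentration.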

In the case of `CC1CN(C(=O)[C@H]2CCN(C)C[C@@H]2c2ccccc2)Cc2nc(Nc3cnn(C)c3)ncc21` (mixture of isomers) [Compound 194], the IC50 is 110 nM.

As to `C[C@@H]1Cc2cnc(N[C@@H]3CCC(=O)N(C)C3)nc2CN1C(=O)[C@H]1CCN(C)C[C@@H]1c1ccccc1` (relative stereo) [Compound 6], the IC50 is 832 nM.

As for `C[C@@H]1Cc2cnc(N[C@H]3CCOC(C)(C)C3)nc2CN1C(=O)[C@H]1CCN(C)C[C@@H]1c1ccccc1` (relative stereo) [Compound 39], the IC50 was 398 nM.

On to `Cc1cc([C@@H]2CN(C)CC[C@H]2C(=O)N2Cc3nc(NC4CCOCC4)ncc3C[C@H]2C)ccn1` (relative stereo) [Compound 102], for which the IC50 is 1700 nM.

For the molecule `CO[C@H]1CC[C@H](Nc2ncc3c(n2)CN(C(=O)[C@@H]2CCN(C)C[C@H]2c2ccnc(C)c2)[C@H](C)C3)CC1` (relative stereo) [Compound 105], the IC50 was 407 nM.

`C[C@@H]1Cc2cnc(NCc3ccn(C)n3)nc2CN1C(=O)[C@H]1CCN(C)C[C@@H]1c1cccc(C(F)(F)F)c1` (relative stereo) [Compound 129]: the IC50 was ~41.7 nM.

For `C[C@@H]1Cc2cnc(NC3CCOCC3)nc2CN1C(=O)[C@H]1CCN(C)C[C@@H]1c1ccc(Cl)cc1` (relative stereo) [Compound 132], the IC50 was ~81.3 nM.

On to `C[C@@H]1Cc2cnc(NC3CCOCC3)nc2CN1C(=O)[C@H]1CCN(C)C[C@@H]1c1cccc(F)c1` (relative stereo) [Compound 133], for which the IC50 is 97.7 nM.

Regarding `Cc1cccc([C@H]2CN(C)CC[C@@H]2C(=O)N2Cc3nc(NC4CCOCC4)ncc3C[C@H]2C)c1` (relative stereo) [Compound 134], the IC50 was ~67.6 nM.

For the molecule `Cc1cccc([C@@H]2CN(C)CC[C@H]2C(=O)N2Cc3nc(NCc4ccn(C)n4)ncc3C[C@H]2C)c1` (relative stereo) [Compound 136], the IC50 was ~27.5 nM.

Consider `C[C@@H]1Cc2cnc(NCc3ccn(C)n3)nc2CN1C(=O)[C@H]1CCN(C)C[C@@H]1c1ccccc1C(F)F` (relative stereo) [Compound 139], for which the IC50 is 1260 nM.

`C[C@@H]1Cc2cnc(NCc3ccccc3)nc2CN1C(=O)[C@@H]1CCN(C)C[C@H]1C(F)(F)F` (relative stereo) [Compound 141]: the IC50 is > 10000 nM.

With `C[C@@H]1Cc2cnc(NCc3ccn(C)n3)nc2CN1C(=O)[C@H]1CCN(C)C[C@@H]1C(F)(F)F` (relative stereo) [Compound 143], the IC50 is 2570 nM.

As to `C[C@@H]1Cc2cnc(N[C@H]3CCCNC3)nc2CN1C(=O)[C@H]1CCN(C)C[C@@H]1C(F)(F)F` (relative stereo) [Compound 144], the IC50 is 759 nM.

In the case of `C[C@@H]1CN(C)CC[C@H]1C(=O)N1Cc2nc(NC3CCOCC3)ncc2C[C@H]1C` (relative stereo) [Compound 145], the IC50 is 2950 nM.

For `C[C@@H]1Cc2cnc(NC3CCOCC3)nc2CN1C(=O)[C@H]1CCN(C)C[C@@H]1C` (relative stereo) [Compound 146], the IC50 was 692 nM.

Regarding `C[C@H]1CN(C(=O)[C@H]2CCN(C)C[C@@H]2c2ccccc2)[C@@H](C)c2nc(NC3CCOCC3)ncc21` (relative stereo) [Compound 181], the IC50 was 2510 nM.

With `C[C@@H]1CN(C(=O)[C@H]2CCN(C)C[C@@H]2c2ccccc2)Cc2nc(NC3CCOCC3)ncc21` (relative stereo) [Compound 188], the IC50 was 105 nM.

On to `CN1CC[C@H](C(=O)N2Cc3nc(NC4CCOCC4)ncc3CC2(C)C)[C@@H](c2ccccc2)C1` (relative stereo) [Compound 189], for which the IC50 is 1020 nM.

As to `[2H]C([2H])([2H])N1CC[C@@H](C(=O)N2Cc3nc(NCc4ccn(C)n4)ncc3C[C@H]2C)[C@H](c2cccc(C)c2)C1` (single isomer, unassigned) [Compound 148], the IC50 is ~26.9 nM.

With `[2H]C([2H])([2H])N1CC[C@H](C(=O)N2Cc3nc(NCc4ccccc4)ncc3C[C@H]2C)[C@@H](c2ccccc2)C1` (single isomer, unassigned) [Compound 154], the IC50 is 129 nM.

On to `C[C@@H]1Cc2cnc(NC3CCOCC3)nc2[C@H](C)N1C(=O)[C@H]1CCN(C)C[C@@H]1c1ccccc1` (single isomer, unassigned) [Compound 195b], for which the IC50 was 72.4 nM.
